Laboratory results reported in the NIST ThermoML archive (doi:10.1016/j.tca.2016.03.033).
Numbers after ± are expanded uncertainties.

Columns and labels:
[1] = xn = mol fraction of the nth substance listed; details: Ring tensiometer
[2] = Ring tensiometer

[F][La]([F])[F] [lanthanum trifluoride] + [F-].[Li+]
surface tension liquid-gas ([1]; 1223 K, x1 = 0.2): 257.3 ± 4.2 mN/m | surface tension liquid-gas ([1]; 1223 K, x1 = 0.25): 264.7 ± 4.3 mN/m | surface tension liquid-gas ([1]; 1223 K, x1 = 0.3): 272.2 ± 4.4 mN/m | surface tension liquid-gas ([1]; 1248 K, x1 = 0.2): 254.9 ± 4.1 mN/m | surface tension liquid-gas ([1]; 1248 K, x1 = 0.25): 262.1 ± 4.2 mN/m | surface tension liquid-gas ([1]; 1248 K, x1 = 0.3): 269.5 ± 4.4 mN/m | surface tension liquid-gas ([1]; 1273 K, x1 = 0.2): 251.8 ± 4.1 mN/m | surface tension liquid-gas ([1]; 1273 K, x1 = 0.25): 259 ± 4.2 mN/m | surface tension liquid-gas ([1]; 1273 K, x1 = 0.3): 267.2 ± 4.3 mN/m | surface tension liquid-gas ([1]; 1298 K, x1 = 0.2): 249.3 ± 4 mN/m | surface tension liquid-gas ([1]; 1298 K, x1 = 0.25): 256.3 ± 4.2 mN/m | surface tension liquid-gas ([1]; 1298 K, x1 = 0.3): 264.9 ± 4.3 mN/m | surface tension liquid-gas ([1]; 1298 K, x1 = 0.35): 274.2 ± 4.4 mN/m | surface tension liquid-gas ([1]; 1323 K, x1 = 0.2): 247 ± 4 mN/m | surface tension liquid-gas ([1]; 1323 K, x1 = 0.25): 253.6 ± 4.1 mN/m | surface tension liquid-gas ([1]; 1323 K, x1 = 0.3): 262.1 ± 4.3 mN/m | surface tension liquid-gas ([1]; 1323 K, x1 = 0.35): 271.4 ± 4.4 mN/m | surface tension liquid-gas ([1]; 1323 K, x1 = 0.4): 281.7 ± 4.6 mN/m | surface tension liquid-gas ([1]; 1348 K, x1 = 0.2): 244.4 ± 4 mN/m | surface tension liquid-gas ([1]; 1348 K, x1 = 0.25): 251.2 ± 4.1 mN/m | surface tension liquid-gas ([1]; 1348 K, x1 = 0.3): 258.9 ± 4.2 mN/m | surface tension liquid-gas ([1]; 1348 K, x1 = 0.35): 268.3 ± 4.4 mN/m | surface tension liquid-gas ([1]; 1348 K, x1 = 0.4): 279.1 ± 4.5 mN/m | surface tension liquid-gas ([1]; 1373 K, x1 = 0.2): 242.1 ± 3.9 mN/m | surface tension liquid-gas ([1]; 1373 K, x1 = 0.25): 248.8 ± 4 mN/m | surface tension liquid-gas ([1]; 1373 K, x1 = 0.3): 256.5 ± 4.2 mN/m | surface tension liquid-gas ([1]; 1373 K, x1 = 0.35): 265 ± 4.3 mN/m | surface tension liquid-gas ([1]; 1373 K, x1 = 0.4): 276.5 ± 4.5 mN/m | surface tension liquid-gas ([1]; 1398 K, x1 = 0.2): 239.2 ± 3.9 mN/m | surface tension liquid-gas ([1]; 1398 K, x1 = 0.25): 246.7 ± 4 mN/m | surface tension liquid-gas ([1]; 1398 K, x1 = 0.3): 253.8 ± 4.1 mN/m | surface tension liquid-gas ([1]; 1398 K, x1 = 0.35): 262.2 ± 4.3 mN/m | surface tension liquid-gas ([1]; 1398 K, x1 = 0.4): 274 ± 4.5 mN/m | surface tension liquid-gas ([1]; 1423 K, x1 = 0.2): 236.9 ± 3.9 mN/m | surface tension liquid-gas ([1]; 1423 K, x1 = 0.25): 243.9 ± 4 mN/m | surface tension liquid-gas ([1]; 1423 K, x1 = 0.3): 251.3 ± 4.1 mN/m | surface tension liquid-gas ([1]; 1423 K, x1 = 0.35): 259.8 ± 4.2 mN/m | surface tension liquid-gas ([1]; 1423 K, x1 = 0.4): 270.9 ± 4.4 mN/m

[F][Nd]([F])[F] [neodymium fluoride] + [F-].[Li+]
surface tension liquid-gas ([1]; 1223 K, x1 = 0.2): 249.1 ± 4.1 mN/m | surface tension liquid-gas ([1]; 1223 K, x1 = 0.25): 258.3 ± 4.2 mN/m | surface tension liquid-gas ([1]; 1223 K, x1 = 0.3): 267.8 ± 4.4 mN/m | surface tension liquid-gas ([1]; 1223 K, x1 = 0.35): 279.2 ± 4.5 mN/m | surface tension liquid-gas ([1]; 1248 K, x1 = 0.2): 247.2 ± 4 mN/m | surface tension liquid-gas ([1]; 1248 K, x1 = 0.25): 255.7 ± 4.2 mN/m | surface tension liquid-gas ([1]; 1248 K, x1 = 0.3): 264.9 ± 4.3 mN/m | surface tension liquid-gas ([1]; 1248 K, x1 = 0.35): 276.8 ± 4.5 mN/m | surface tension liquid-gas ([1]; 1273 K, x1 = 0.2): 244.3 ± 4 mN/m | surface tension liquid-gas ([1]; 1273 K, x1 = 0.25): 253.5 ± 4.1 mN/m | surface tension liquid-gas ([1]; 1273 K, x1 = 0.3): 262.7 ± 4.3 mN/m | surface tension liquid-gas ([1]; 1273 K, x1 = 0.35): 273.3 ± 4.4 mN/m | surface tension liquid-gas ([1]; 1273 K, x1 = 0.4): 284.1 ± 4.6 mN/m | surface tension liquid-gas ([1]; 1298 K, x1 = 0.2): 241.9 ± 3.9 mN/m | surface tension liquid-gas ([1]; 1298 K, x1 = 0.25): 250.9 ± 4.1 mN/m | surface tension liquid-gas ([1]; 1298 K, x1 = 0.3): 259.5 ± 4.2 mN/m | surface tension liquid-gas ([1]; 1298 K, x1 = 0.35): 270.4 ± 4.4 mN/m | surface tension liquid-gas ([1]; 1298 K, x1 = 0.4): 280.7 ± 4.6 mN/m | surface tension liquid-gas ([1]; 1323 K, x1 = 0.2): 239.6 ± 3.9 mN/m | surface tension liquid-gas ([1]; 1323 K, x1 = 0.25): 249.3 ± 4.1 mN/m | surface tension liquid-gas ([1]; 1323 K, x1 = 0.3): 257 ± 4.2 mN/m | surface tension liquid-gas ([1]; 1323 K, x1 = 0.35): 268.1 ± 4.4 mN/m | surface tension liquid-gas ([1]; 1323 K, x1 = 0.4): 279.6 ± 4.5 mN/m | surface tension liquid-gas ([1]; 1348 K, x1 = 0.2): 237.3 ± 3.9 mN/m | surface tension liquid-gas ([1]; 1348 K, x1 = 0.25): 246.3 ± 4 mN/m | surface tension liquid-gas ([1]; 1348 K, x1 = 0.3): 254.5 ± 4.1 mN/m | surface tension liquid-gas ([1]; 1348 K, x1 = 0.35): 266 ± 4.3 mN/m | surface tension liquid-gas ([1]; 1348 K, x1 = 0.4): 276.8 ± 4.5 mN/m | surface tension liquid-gas ([1]; 1373 K, x1 = 0.2): 235.2 ± 3.8 mN/m | surface tension liquid-gas ([1]; 1373 K, x1 = 0.25): 243.6 ± 4 mN/m | surface tension liquid-gas ([1]; 1373 K, x1 = 0.3): 251.6 ± 4.1 mN/m | surface tension liquid-gas ([1]; 1373 K, x1 = 0.35): 262.7 ± 4.3 mN/m | surface tension liquid-gas ([1]; 1373 K, x1 = 0.4): 274.1 ± 4.5 mN/m | surface tension liquid-gas ([1]; 1398 K, x1 = 0.2): 232.9 ± 3.8 mN/m | surface tension liquid-gas ([1]; 1398 K, x1 = 0.25): 240.4 ± 3.9 mN/m | surface tension liquid-gas ([1]; 1398 K, x1 = 0.3): 249.3 ± 4.1 mN/m | surface tension liquid-gas ([1]; 1398 K, x1 = 0.35): 260.4 ± 4.2 mN/m | surface tension liquid-gas ([1]; 1398 K, x1 = 0.4): 272.1 ± 4.4 mN/m | surface tension liquid-gas ([1]; 1423 K, x1 = 0.2): 230.8 ± 3.8 mN/m | surface tension liquid-gas ([1]; 1423 K, x1 = 0.25): 239.1 ± 3.9 mN/m | surface tension liquid-gas ([1]; 1423 K, x1 = 0.3): 246.9 ± 4 mN/m | surface tension liquid-gas ([1]; 1423 K, x1 = 0.35): 257.3 ± 4.2 mN/m | surface tension liquid-gas ([1]; 1423 K, x1 = 0.4): 268.2 ± 4.4 mN/m

[Cl-].[K+] [potassium chloride]
surface tension liquid-gas ([2]; 1230 K): 86.14 ± 1.5 mN/m

[F-].[Na+] [sodium fluoride]
surface tension liquid-gas ([2]; 1325 K): 187.14 ± 3.1 mN/m
